Data set [1] addresses T1, neutral endopeptidase (NEP) (Homo sapiens, UniProt P08473).
T1 construct: purchased R&D Systems 1182-ZNC
In words: Sensitivity towards proteolytic degradation by neutral endopeptidase (NEP). The following applies: 4 hours incubation with 0.6 μg/ml NEP at 37° C., then activity on the rat receptor cell line. Format: in vitro ADME.

The target in data set [2] is T2, insulin degrading enzyme (IDE) (Rattus norvegicus, UniProt P35559).
T2 sequence (P35559 42-1019 limits assumed): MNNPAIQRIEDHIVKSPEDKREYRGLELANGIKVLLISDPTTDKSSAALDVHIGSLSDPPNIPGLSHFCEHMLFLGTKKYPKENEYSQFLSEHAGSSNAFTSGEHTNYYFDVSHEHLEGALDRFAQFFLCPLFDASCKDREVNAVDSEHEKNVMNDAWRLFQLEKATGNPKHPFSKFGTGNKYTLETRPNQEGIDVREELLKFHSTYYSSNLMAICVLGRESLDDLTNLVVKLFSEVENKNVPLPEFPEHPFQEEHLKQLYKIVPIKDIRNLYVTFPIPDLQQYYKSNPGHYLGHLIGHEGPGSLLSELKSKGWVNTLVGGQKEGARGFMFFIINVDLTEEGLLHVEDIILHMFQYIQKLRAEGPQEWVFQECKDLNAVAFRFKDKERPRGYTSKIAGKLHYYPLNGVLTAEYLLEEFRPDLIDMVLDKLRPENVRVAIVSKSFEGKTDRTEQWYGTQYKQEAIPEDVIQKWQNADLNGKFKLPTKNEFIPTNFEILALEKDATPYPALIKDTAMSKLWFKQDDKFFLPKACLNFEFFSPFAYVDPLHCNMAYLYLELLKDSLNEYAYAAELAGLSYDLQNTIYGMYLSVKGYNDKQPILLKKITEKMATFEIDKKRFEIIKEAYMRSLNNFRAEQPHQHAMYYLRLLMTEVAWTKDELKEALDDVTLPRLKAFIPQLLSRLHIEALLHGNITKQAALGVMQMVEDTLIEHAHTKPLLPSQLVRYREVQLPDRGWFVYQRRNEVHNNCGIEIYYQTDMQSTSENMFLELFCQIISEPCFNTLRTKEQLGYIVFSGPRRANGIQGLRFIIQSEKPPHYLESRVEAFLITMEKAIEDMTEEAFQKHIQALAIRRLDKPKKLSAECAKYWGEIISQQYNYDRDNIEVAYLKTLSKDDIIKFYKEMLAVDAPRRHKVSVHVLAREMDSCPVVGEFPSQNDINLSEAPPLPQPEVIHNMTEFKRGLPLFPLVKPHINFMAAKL
In words: Sensitivity towards proteolytic degradation by insulin degrading enzyme (IDE). Conditions: 4 hours incubation with 0.6 μg/ml IDE at 37° C., then activity on the rat receptor cell line.

Positions of bridges follow the written chain, without caps; N, C: chain ends. Residues, ends and D or L forms follow the SMILES beside them.

T1 sequence (P08473 52-750 limits assumed): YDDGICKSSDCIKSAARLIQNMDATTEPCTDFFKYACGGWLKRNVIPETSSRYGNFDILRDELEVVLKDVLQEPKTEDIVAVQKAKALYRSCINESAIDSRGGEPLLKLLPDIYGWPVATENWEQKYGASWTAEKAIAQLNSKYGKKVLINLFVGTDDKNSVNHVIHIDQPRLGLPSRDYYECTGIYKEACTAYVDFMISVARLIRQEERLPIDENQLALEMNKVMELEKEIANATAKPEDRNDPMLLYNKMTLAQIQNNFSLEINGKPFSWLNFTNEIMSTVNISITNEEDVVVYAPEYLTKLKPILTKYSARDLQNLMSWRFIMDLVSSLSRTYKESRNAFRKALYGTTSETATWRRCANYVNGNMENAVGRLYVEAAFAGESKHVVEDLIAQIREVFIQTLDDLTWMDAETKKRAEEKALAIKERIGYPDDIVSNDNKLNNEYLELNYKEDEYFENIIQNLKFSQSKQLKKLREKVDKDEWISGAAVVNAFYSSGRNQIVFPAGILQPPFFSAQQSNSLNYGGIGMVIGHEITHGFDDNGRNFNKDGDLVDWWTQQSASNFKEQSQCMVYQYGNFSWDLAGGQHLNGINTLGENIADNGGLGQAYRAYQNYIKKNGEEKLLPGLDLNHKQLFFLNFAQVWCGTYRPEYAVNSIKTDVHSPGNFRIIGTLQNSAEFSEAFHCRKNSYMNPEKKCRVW

`CC[C@H](C)[C@@H]1NC(=O)[C@H](CCCNC(=N)N)NC(=O)[C@H](CC(=O)O)NC(=O)[C@H]([C@@H](C)CC)NC(=O)[C@H](CCCCN)NC(=O)[C@H](CCC(N)=O)NC(=O)CNC(=O)[C@H](Cc2ccccc2)NC(=O)[C@@H](NC(=O)[C@H](CO)NC(=O)[C@H](CO)NC(=O)[C@H](CO)NC(=O)[C@H](Cc2c[nH]cn2)NC(=O)[C@H](C)NC(=O)[C@H](CCSC)NC(=O)[C@H](CCCCN)NC(=O)[C@H](CO)NC(=O)[C@@H](N)CC(N)=O)CSSC[C@@H](C(=O)N[C@@H](CC(=O)O)C(=O)NCC(=O)N[C@@H](CC(C)C)C(=O)N[C@@H](CCCNC(=N)N)C(=O)N[C@@H](CC(C)C)C(=O)N[C@@H](Cc2ccccc2)C(=O)O)NC(=O)CNC(=O)[C@H](CC(C)C)NC(=O)[C@H](CCCNC(=N)N)NC(=O)[C@H](CO)NC(=O)[C@H](C(C)C)NC(=O)[C@H](C)NC(=O)CNC1=O` [BNP, reference compound] (H-NSKMAHSSSCFGQKIDRIGAVSRLGCDGLRLF-OH; disulfide 10-26; N-terminus and C-terminus assumed): the “sensitivity towards proteolytic degradation by NEP” value in data set [1] is reported as “high sensitivity”. Further, the “sensitivity towards proteolytic degradation by IDE” value in data set [2] is “high sensitivity”.

Values taken from patent US12390508B2, “Brain natriuretic peptide engrafted antibodies” (Boehringer Ingelheim International GmbH, priority 2018, dated 2025).
